Laboratory results reported in PubChem BioAssay (NCI).
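The compound was tested at five concentrations on cells cultured in 96-well plates, with a 48-hour exposure period. GI50 is the concentration that inhibits growth by half. The concentration for full growth arrest is given as TGI.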

Columns and labels:
Assay in all cases: DTP human tumour cell line panel, 48 h
A549 NSCLC = tested on: A549 NSCLC
HCT-15 colon = tested on: HCT-15 colon
HT29 colon = tested on: HT29 colon
LOX IMVI melanoma = tested on: LOX IMVI melanoma
M14 melanoma = tested on: M14 melanoma
MDA-MB-231 breast = tested on: MDA-MB-231 breast
PC-3 prostate = tested on: PC-3 prostate
SF-268 CNS = tested on: SF-268 CNS
U251 CNS = tested on: U251 CNS

SMILES	GI50 (A549 NSCLC) [µM]	TGI (A549 NSCLC) [µM]	GI50 (HCT-15 colon) [µM]	TGI (HCT-15 colon) [µM]	GI50 (HT29 colon) [µM]	TGI (HT29 colon) [µM]	GI50 (LOX IMVI melanoma) [µM]	TGI (LOX IMVI melanoma) [µM]	GI50 (M14 melanoma) [µM]	TGI (M14 melanoma) [µM]	GI50 (MDA-MB-231 breast) [µM]	TGI (MDA-MB-231 breast) [µM]	GI50 (PC-3 prostate) [µM]	TGI (PC-3 prostate) [µM]	GI50 (SF-268 CNS) [µM]	TGI (SF-268 CNS) [µM]	GI50 (U251 CNS) [µM]	TGI (U251 CNS) [µM]
Cc1ccc2c(c1)Sc1c(ccc3ccccc13)N2	92.8	> 100	1.45	> 100	51.2	> 100	8.91	> 100	> 100	> 100	42.1	> 100	11.5	> 100	69.2	> 100	9.31	> 100
CCOC1Oc2ccc(C)cc2C(=O)/C1=C\Nc1ccc(C(N)=O)cc1 (configuration not stated)	33.3	> 100	11.4	30.6	37.5	> 100	13.9	34.4	17.2	33.4	16.7	36	32.9	> 100	44	> 100	13.2	34.2
C#CCNC(=O)c1cccc2c1cc(C)n2-c1nc2c(c(NCc3ccccc3)n1)CCCC2	0.0381	0.124	0.0197	0.0474	0.03	0.0924	0.0104	0.0256	0.0195	0.0439	0.0216	0.0546	0.024	0.0717	0.0257	0.0771	0.0254	0.0646
CC(C)(CO)N1CCN(C(=S)Nc2ccccc2)CC1		> 100		> 100		> 100		> 100		> 100		> 100		> 100		> 100		> 100
O=C(O)CCNC1CCCCC1	> 100	> 100	> 100	> 100	> 100	> 100	> 100	> 100	> 100	> 100	> 100	> 100	> 100	> 100	> 100	> 100	> 100	> 100
CC/C=C\C[C@H](F)C/C=C1/C(=O)C=C[C@@H]1C/C=C\CCCC(=O)O	7.3	18.8	4.45	13.8	5.4	15	3.77	7.97	6.53	20	12.7	> 32.5	6.09	15.7	6.55	22.4	4.01	8.94
CS(=O)(=O)c1ccc(-n2nc(C(F)(F)F)cc2OC2CCCC2)cc1	25.7	79.4	30.6	80.1	24.7	78.4	16.9	54.6	32.2	93.5	26	71.2	27.7	> 100	36.1	> 100	22.1	75
